Read-outs that look alike come from different tables or passages of the source. Values belong to the molecule of their own block, whether it stands above or below them.
Assays:
[1] = system: Human primary melanocytes; assay: Melanin content assay; format: cell-based; conditions: Melanocyte, 72 h
Description: Human primary melanocytes (Cascade Biologics, now ThermoFisher Scientific) were grown in melanocytes growth medium (MGM) with human melanocyte growth supplement (both media components from ThermoFisher Scientific). Melanocytes were seeded at 5×10^4 cells/well in 24 well-plates and incubated in a humidified incubator at 37° C. with 5% CO2 atmosphere. After 24 hours of incubation, cell cultures were treated with the GAP amino acids or additional test reagents above-described, alone or in combination, as described in examples below. The vehicle control consisted of cells treated with the vehicle (0.002 mM NaOH) alone. After treatment, cells were again incubated for 72 hours in a humidified incubator at 37° C. with 5% CO2 atmosphere. At the end of the 72 hour incubation, the culture medium was replaced with 120 uL/well of melanin content assay reagent (10% DMSO in 1M sodium hydroxide) and incubated for 1 hour at 60° C. in a shaker incubator. The supernatant was then transferred to a 384 well plate. The absorbance was measured by spectrophotometric analysis at 405 nm with a micro plate reader (GEnios Pro, Tecan).
The spectrophotometric optical density at 405 nm for untreated cells (no active) was considered as 100% melanin content. Relative melanin content for treated samples was calculated with normalization based on the untreated (media/vehide) control.

[2] = biological target: T1, tyrosinase (Homo sapiens, UniProt P14679); assay: Tyrosinase activity assay (in situ, melanocyte lysate); format: cell-based; conditions: Table 1B, 72 h
T1 construct: host or cells: human primary melanocytes
T1 sequence (P14679 19-529): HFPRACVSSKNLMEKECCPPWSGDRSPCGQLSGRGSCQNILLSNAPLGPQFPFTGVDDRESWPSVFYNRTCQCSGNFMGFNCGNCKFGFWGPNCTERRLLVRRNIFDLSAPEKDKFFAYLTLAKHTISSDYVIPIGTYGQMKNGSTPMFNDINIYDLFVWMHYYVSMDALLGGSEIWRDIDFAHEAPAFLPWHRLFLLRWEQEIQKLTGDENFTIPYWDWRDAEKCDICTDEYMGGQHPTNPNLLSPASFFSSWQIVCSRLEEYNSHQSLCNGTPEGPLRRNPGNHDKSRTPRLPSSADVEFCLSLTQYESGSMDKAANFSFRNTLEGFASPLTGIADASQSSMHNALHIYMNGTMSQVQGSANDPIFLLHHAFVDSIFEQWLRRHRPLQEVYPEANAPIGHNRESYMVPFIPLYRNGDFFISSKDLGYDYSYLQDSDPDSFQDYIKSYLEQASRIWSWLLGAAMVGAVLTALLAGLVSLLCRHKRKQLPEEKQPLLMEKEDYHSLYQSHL
Description: Human primary melanocytes (Cascade Biologics, now ThermoFisher Scientific) were grown in melanocytes growth medium (MGM) with human melanocyte growth supplement (both media components from ThermoFisher Scientific). Melanocytes were seeded at 1×10^4 cells/well in a 96 wells plate and cultures left undisturbed for 24 hours in a 5% CO2 humidifed incubator at 37° C. At 24 hrs post-seeding, cells were treated with GAP amino acids or additional test reagents above-described, alone or in combination, as described in examples below and left undisturbed for another 72 hours. Subsequently, cell viability was assessed and the cells were then lysed and progressed for determination of in situ tyrosinase activity. Cultures were rinsed twice with 1× phosphate-buffered saline and lysed with 40 uL of 0.5% TritonX 100 for 1 hr on an ice bed. In situ tyrosinase activity was visualized by addition of 60 μl of 50 mM potassium phosphate buffer (pH 6.8) containing 2 mM DOPA (3,4 dihydroxy phenylalanine) and 4 mM MBTH reagent (3-Methyl-2-Benzothiazolinone hydrazone hydrochloride) for 1 hour at 37° C. The reaction was stopped by the addition of 100 uL of ice-cold 10% tricholoracetic acid and then centrifuged at approximately 300 g for 10 minutes at 4° C. The soluble supernatant was separated from the pellet and the optical density read in a TECAN plate-reader (540 nm filter). The spectrophotometric optical density at 540 nm for untreated cells (media/vehicle) is considered as 100% tyrosinase activity. Tyrosinase activity is expressed after correction for cell numbers (activity/viability) and represented as % control.

SMILES: NC(=O)c1ccc[n+]([C@@H]2O[C@H](CO)[C@@H](O)[C@H]2O)c1 [Nicotinamide Riboside, nicotinamide riboside]
inhibition at 1 µM ([1]; Table 1E, Nicotinamide Riboside 1 uM, alone or with GAP, read-out: Melanin synthesis inhibition, Mean of % Inhibition): 4%
inhibition at 2.5 µM ([1]; Table 1E, Nicotinamide Riboside 2.5 uM, alone or with GAP, read-out: Melanin synthesis inhibition, Mean of % Inhibition): 9%

SMILES: NC(=O)c1ccccn1 [Picolinamide, picolinamide]
inhibition at 5000 µM ([1]; Table 2, Picolinamide 5 mM, alone or with GAP, read-out: Melanin synthesis inhibition, Mean of % Inhibition): 6%
inhibition at 10000 µM ([1]; Table 2, Picolinamide 10 mM, alone or with GAP, read-out: Melanin synthesis inhibition, Mean of % Inhibition): 32%

SMILES: O=C(O)c1cccnc1 [Niacin, niacin]
inhibition at 5000 µM ([1]; Table 2B, Niacin 5 mM, alone or with GAP, read-out: Melanin Synthesis inhibition, Mean of % Inhibition): -7%
inhibition at 10000 µM ([1]; Table 2B, Niacin 10 mM, alone or with GAP, read-out: Melanin Synthesis inhibition, Mean of % Inhibition): 14%

SMILES: NC(=O)c1ccncc1 [Isonicotinamide, isonicotinamide]
inhibition at 5000 µM ([1]; Table 1D, Isonicotinamide 5 mM, alone or with GAP, read-out: Melanin synthesis inhibition, Mean of % Inhibition): 4%
inhibition at 10000 µM ([1]; Table 1D, Isonicotinamide 10 mM, alone or with GAP, read-out: Melanin synthesis inhibition, Mean of % Inhibition): 20%

inhibition at 10 µM ([2]; HR 10 uM): 67%
SMILES: CCCCCCc1ccc(O)cc1O [HR, 4-hexylresorcinol]
inhibition at 10 µM ([1]; Table 1A, HR 10 uM, read-out: Melanin synthesis inhibition, Mean of % Inhibition): 35%
inhibition at 10 µM ([1]; Table 1C, HR 10 μM, read-out: Melanin synthesis inhibition, Mean of % Inhibition): 26%
inhibition at 10 µM ([1]; Table 1D, HR 10 uM, read-out: Melanin synthesis inhibition, Mean of % Inhibition): 32%
inhibition at 10 µM ([1]; Table 1E, HR 10 uM, read-out: Melanin synthesis inhibition, Mean of % Inhibition): 28%
inhibition at 10 µM ([1]; Table 2, HR 10 uM, read-out: Melanin synthesis inhibition, Mean of % Inhibition): 36%
inhibition at 10 µM ([1]; Table 2B, HR 10 uM, read-out: Melanin Synthesis inhibition, Mean of % Inhibition): 32%

SMILES: CNC(=O)c1cccnc1 [N-methyl Nicotinamide, n-methyl-nicotinamide]
inhibition at 5000 µM ([1]; Table 1C, N-methyl Nicotinamide 5 mM, alone or with GAP, read-out: Melanin synthesis inhibition, Mean of % Inhibition): 0%
inhibition at 10000 µM ([1]; Table 1C, N-methyl Nicotinamide 10 mM, alone or with GAP, read-out: Melanin synthesis inhibition, Mean of % Inhibition): 7%

inhibition at 5000 µM ([2]; Nicotinamide 5 mM, alone or with GAP): 16%
inhibition at 10000 µM ([2]; Nicotinamide 10 mM, alone or with GAP): 24%
SMILES: NC(=O)c1cccnc1 [Nicotinamide, nicotinamide]
inhibition at 5000 µM ([1]; Table 1A, Nicotinamide 5 mM, alone or with GAP, read-out: Melanin synthesis inhibition, Mean of % Inhibition): 9%
inhibition at 10000 µM ([1]; Table 1A, Nicotinamide 10 mM, alone or with GAP, read-out: Melanin synthesis inhibition, Mean of % Inhibition): 10%
